The record followed here is PMC5086383, “Isolation and Physicochemical Characterization of Laccase from Ganoderma lucidum-CDBT1 Isolated from Its Native Habitat in Nepal” (BioMed Research International, 2016).

The test system of the assay is T1, laccase isozyme 3 (purified laccase from Ganoderma lucidum-CDBT1).
T1 construct: native secreted enzyme purified from culture medium (ammonium sulfate, DEAE Sepharose); 43 kDa by SDS-PAGE
As to the kind of experiment: ABTS oxidation at […] nm, Lineweaver-Burk. As to conditions: 0.1 M sodium acetate pH 5.0, room temperature (~25°C); ABTS 0.01 to 10 mM; co-substrate O2. It is filed as biochemical.

A word on the Km: it is the substrate concentration at which the rate is half of its maximum. With `CCn1c(=NN=c2sc3cc(S(=O)(=O)O)ccc3n2CC)sc2cc(S(=O)(=O)O)ccc21` [ABTS, 2,2′-azino-bis(3-ethylbenzothiazoline-6-sulfonic acid)], the Km stood at 110 µM.
